Where a name gives a salt, the structure may show the parent alone.
Experiments:
A375res cells [1] = experiment: Proliferation assay in vemurafenib-resistant A375res melanoma cells; details: Homo sapiens, 72 h, read-out: absolute IC50 values
Description: (§1) A vemurafenib-resistant cell line is generated by chronic treatment of the human melanoma cell line A375 (ATCC) harboring the B-Raf V600E mutation with increasing concentrations PLX4720.

A375res cells [2] = tested on: A375res cells
Description: as §1

[3] = tested on: phospho-ERK in HCT-116 cells; experiment: HCT-116 cell pERK assay (AlphaScreen SureFire); assay type: cell-based; details: Homo sapiens; HCT-116 cells, B-Raf wild type, K-Ras mutation; 4 hours; read-out: IC50 reduction of phospho-ERK signal
Description: Examples of Formula I are tested against HCT-116 cells harboring wild type B-Raf and K-Ras mutation. The phospho-ERK activities are evaluated as described below.
HCT-116 cells (catalog #CCL-247) are obtained from the American Type Culture Collection (ATCC, Manassas, Va.). Briefly, cells are grown in McCoy's 5A supplemented with 10% characterized fetal bovine serum (Invitrogen, Carlsbad, Calif.), and 1% Penicillin/Streptomycin/L-Glutamine at 37 degrees Celsius, 5% CO2, and 95% humidity. Cells are allowed to expand until reaching 75-90% confluency at which point they are subcultured or harvested for assay use. HCT-116 cells suspended in complete media are added to 384-well tissue culture treated plates (3×10^5 cells/mL; 7,500 cells per well). The cells are incubated overnight at 37 degrees Celsius, 5% CO2, and 95% humidity. Next, test compound or DMSO diluted in complete media is added to the wells (0.25% final DMSO concentration). The plates are then incubated for 4 hours at 37 degrees Celsius, 5% CO2, and 95% humidity. Following compound incubation, the cells are lysed at 4° C. for 20 minutes with shaking Cell lysates are centrifuged and the supernatant is transferred to a new plate. An aliquot of each lysate is transferred to a white 384-well assay plate. Using the AlphaScreen SureFire pERK kit (Perkin-Elmer, Waltham, Mass.), an acceptor bead mixture is added to each well and incubated for 2 h at room temperature in the dark. A donor bead mixture is then added to each well and incubated for 2 h at room temperature in the dark. Plates are read using a Synergy2 plate reader (Biotek, Winooski, Vt.) in Plate Mode with Timing Control. Read: (F)1: excitation: 680/30 nm, emission: Plug. 2: Excitation: Plug, emission: 570/100 nm. Top mirror 635 nm. Data is analyzed using Prism software (Graphpad, San Diego, Calif.) to calculate IC50 values and Excel software (Microsoft, Redmond, Wash.) to calculate stimulation compared to control.

SMILES	IC50 (A375res cells [1]) [nM]	IC50 shift A375 to A375res (A375res cells [2])	IC50 [3] [nM]
CNc1cc2nc(C)c(-c3cc(NC(=O)N[C@H]4C[C@@](C)(F)C4)c(F)cc3C)cc2cn1 [Example 100, 1-(3-fluoro-trans(3-methylcyclobutyl))-3-(2-fluoro-4-methyl-5-(2-methyl-7-(methylamino)-1,6-naphthyridin-3-yl)phenyl)urea]	9 to 504	0.5-4.9 fold	–
CNc1cc2nc(C)c(-c3cc(NC(=O)N[C@H]4CC[C@](C)(C#N)CC4)c(F)cc3C)cc2cn1 [Example 25, 1-(trans-4-cyano-4-methylcyclohexyl)-3-(2-fluoro-4-methyl-5-(2-methyl-7-(methylamino)-1,6-naphthyridin-3-yl)phenyl)urea]	9 to 504	0.5-4.9 fold	–
Cc1cc(F)c(NC(=O)NCCC(C)(C)C)cc1-c1cc2cnc(N)cc2nc1C [Example 129, 1-(5-(7-amino-2-methyl-1,6-naphthyridin-3-yl)-2-fluoro-4-methylphenyl)-3-(3,3-dimethylbutyl)urea hydrochloride]	9 to 504	–	2 to 96
CNc1cc2nc(C)c(-c3cc(NC(=O)NCCC4(C)CC4)c(F)cc3C)cc2cn1 [Example 27, 1-(2-fluoro-4-methyl-5-(2-methyl-7-(methylamino)-1,6-naphthyridin-3-yl)phenyl)-3-(2-(1-methylcyclopropyl)ethyl)urea hydrochloride]	9 to 504	0.5-4.9 fold	–
CNc1cc2nc(C)c(-c3cc(NC(=O)NCCCC(C)(C)F)c(F)cc3C)cc2cn1 [Example 101, 1-(2-fluoro-4-methyl-5-(2-methyl-7-(methylamino)-1,6-naphthyridin-3-yl)phenyl)-3-(4-fluoro-4-methylpentyl)urea hydrochloride]	9 to 504	0.5-4.9 fold	–
CNc1cc2nc(C)c(-c3cc(NC(=O)NCC4CCCCC4)c(F)cc3C)cc2cn1 [Example 29, 1-(cyclohexylmethyl)-3-(2-fluoro-4-methyl-5-(2-methyl-7-(methylamino)-1,6-naphthyridin-3-yl)phenyl)urea hydrochloride]	9 to 504	0.5-4.9 fold	–
Cc1cc(F)c(NC(=O)NCCC(C)(C)C#N)cc1-c1cc2cnc(N)cc2nc1C [Example 44, 1-(5-(7-amino-2-methyl-1,6-naphthyridin-3-yl)-2-fluoro-4-methylphenyl)-3-(3-cyano-3-methylbutyl)urea]	9 to 504	0.5-4.9 fold	–
CNc1cc2nc(C)c(-c3cc(NC(=O)NCC(O)C(C)C)c(F)cc3C)cc2cn1 (centres unmarked) [Example 60, 1-(2-fluoro-4-methyl-5-(2-methyl-7-(methylamino)-1,6-naphthyridin-3-yl)phenyl)-3-(2-hydroxy-3-methylbutyl)urea]	9 to 504	0.5-4.9 fold	–
Cc1cc(F)c(NC(=O)NCCC(C)(C)F)cc1-c1cnc2cc(N)ncc2c1 [Example 81, 1-(5-(7-amino-1,6-naphthyridin-3-yl)-2-fluoro-4-methylphenyl)-3-(3-fluoro-3-methylbutyl)urea]	9 to 504	0.5-4.9 fold	–
CNc1cc2nc(C)c(-c3cc(NC(=O)NCCCC(C)(C)OC)c(F)cc3C)cc2cn1 [Example 33, 1-(2-fluoro-4-methyl-5-(2-methyl-7-(methylamino)-1,6-naphthyridin-3-yl)phenyl)-3-(4-methoxy-4-methylpentyl)urea hydrochloride]	9 to 504	0.5-4.9 fold	–
Cc1nc2cc(NC(=O)C3CC3)ncc2cc1-c1cc(NC(=O)NCCC2CC2)c(F)cc1F [Example 123, N-(3-(5-(3-(2-cyclopropylethyl)ureido)-2,4-difluorophenyl)-2-methyl-1,6-naphthyridin-7-yl)cyclopropanecarboxamid hydrochloride]	9 to 504	0.5-4.9 fold	–
CNc1cc2nc(C)c(-c3cc(NC(=O)NCCC4(OC)CC4)c(F)cc3F)cc2cn1 [Example 28, 1-(2,4-difluoro-5-(2-methyl-7-(methylamino)-1,6-naphthyridin-3-yl)phenyl)-3-(2-(1-methoxycyclopropyl)ethyl)urea]	9 to 504	0.5-4.9 fold	–

The next lines start with the values.

IC50 (A375res cells [1]) [nM]	IC50 shift A375 to A375res (A375res cells [2])	IC50 [3] [nM]	SMILES
9 to 504	0.5-4.9 fold	–	Cc1cc(F)c(NC(=O)NCCC(C)(C)F)cc1-c1cc2cnc(NCCO)cc2nc1C [Example 65, 1-(3-fluoro-3-methylbutyl)-3-(2-fluoro-5-(7-((2-hydroxyethyl)amino)-2-methyl-1,6-naphthyridin-3-yl)-4-methylphenyl)urea]
9 to 504	0.5-4.9 fold	–	CNc1cc2nc(C)c(-c3cc(NC(=O)N[C@H]4CC[C@@](C)(C#N)CC4)c(F)cc3C)cc2cn1 [Example 26, 1-(cis-4-cyano-4-methylcyclohexyl)-3-(2-fluoro-4-methyl-5-(2-methyl-7-(methylamino)-1,6-naphthyridin-3-yl)phenyl)urea]
9 to 504	0.5-4.9 fold	–	CNc1cc2nc(C)c(-c3cc(NC(=O)NCCC4(OC)CC4)c(F)cc3C)cc2cn1 [Example 31, 1-(2-fluoro-4-methyl-5-(2-methyl-7-(methylamino)-1,6-naphthyridin-3-yl)phenyl)-3-(2-(1-methoxycyclopropyl)ethyl)urea hydrochloride]
9 to 504	0.5-4.9 fold	–	CNc1cc2nc(C)c(-c3cc(NC(=O)NCCCC(C)(F)F)c(F)cc3C)cc2cn1 [Example 99, 1-(4,4-difluoropentyl)-3-(2-fluoro-4-methyl-5-(2-methyl-7-(methylamino)-1,6-naphthyridin-3-yl)phenyl)urea hydrochloride]
9 to 504	0.5-4.9 fold	–	Cc1cc(F)c(NC(=O)NC2CCCCCC2)cc1-c1cc2cnc(N)cc2nc1C [Example 82, 1-(5-(7-amino-2-methyl-1,6-naphthyridin-3-yl)-2-fluoro-4-methylphenyl)-3-cycloheptylurea]
9 to 504	0.5-4.9 fold	–	COC(C)(C)CCNC(=O)Nc1cc(-c2cc3cnc(N)cc3nc2C)c(C)cc1F [Example 80, 1-(5-(7-amino-2-methyl-1,6-naphthyridin-3-yl)-2-fluoro-4-methylphenyl)-3-(3-methoxy-3-methylbutyl)urea hydrochloride]
9 to 504	0.5-4.9 fold	–	CCOC(C)(C)CCNC(=O)Nc1cc(-c2cc3cnc(NC)cc3nc2C)c(C)cc1F [Example 30, 1-(3-ethoxy-3-methylbutyl)-3-(2-fluoro-4-methyl-5-(2-methyl-7-(methylamino)-1,6-naphthyridin-3-yl)phenyl)urea hydrochloride]
9 to 504	0.5-4.9 fold	–	CNc1cc2nc(C)c(-c3cc(NC(=O)NC(C)CC(C)(C)C)c(F)cc3C)cc2cn1 (centres unmarked) [Example 59, 1-(4,4-dimethylpentan-2-yl)-3-(2-fluoro-4-methyl-5-(2-methyl-7-(methylamino)-1,6-naphthyridin-3-yl)phenyl)urea]
9 to 504	0.5-4.9 fold	–	CNc1cc2ncc(-c3cc(NC(=O)NCCC(C)(C)OC)c(F)cc3C)cc2cn1 [Example 32, 1-(2-fluoro-4-methyl-5-(7-(methylamino)-1,6-naphthyridin-3-yl)phenyl)-3-(3-methoxy-3-methylbutyl)urea]
9 to 504	0.5-4.9 fold	–	CNc1cc2nc(C)c(-c3cc(NC(=O)NCCC4CCC4)c(F)cc3C)cc2cn1 [Example 97, 1-(2-cyclobutylethyl)-3-(2-fluoro-4-methyl-5-(2-methyl-7-(methylamino)-1,6-naphthyridin-3-yl)phenyl)urea hydrochloride]
9 to 504	0.5-4.9 fold	–	CNc1cc2nc(C)c(-c3cc(NC(=O)N[C@H](C)CC(C)(C)C)c(F)cc3C)cc2cn1 [Example 72, (R)-1-(4,4-dimethylpentan-2-yl)-3-(2-fluoro-4-methyl-5-(2-methyl-7-(methylamino)-1,6-naphthyridin-3-yl)phenyl)urea]
9 to 504	0.5-4.9 fold	–	CNc1cc2nc(C)c(-c3cc(NC(=O)NCCCC(F)(F)F)c(F)cc3C)cc2cn1 [Example 91, hydrochloride]
9 to 504	0.5-4.9 fold	–	CNc1cc2nc(C)c(-c3cc(NC(=O)NCC(O)C(F)(F)F)c(F)cc3C)cc2cn1 (centres unmarked) [Example 61, 1-(2-fluoro-4-methyl-5-(2-methyl-7-(methylamino)-1,6-naphthyridin-3-yl)phenyl)-3-(3,3,3-trifluoro-2-hydroxypropyl)urea]

Source: US9187474B2, “Raf inhibitor compounds” (Deciphera Pharmaceuticals, LLC, priority 2012, dated 2015)
